Measurements from patent US20230322767A1, “ARYL SUBSTITUTED PYRROLO-PYRIDINONES AND THERAPEUTIC USES THEREOF” (Bayer Aktiengesellschaft, priority 2020, published 2023).
Where two headings read alike, the source gives them in different places.

Assays:
Type in all cases: biochemical
CSNK1A1 = CSNK1A1 (Homo sapiens (Human), UniProt P48729); assay: CSNK1A1 Assay 2 (ADP-Glo, 1 μM ATP); settings: median, read-out: CSNK1A1 Assay 2 IC50 [mol/l] (median)
Summary of the method: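 Enzyme (~0.0375 ng/μL) preincubated 15 min at 22° C with compound in HEPES pH 7.5 buffer, then reacted with 1 μM ATP and biotin-Ahx-KRRRAL-pS-VASLPGL peptide. ADP product measured by ADP-Glo luminescence after 1 h ATP depletion and 1 h detection at 22° C.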

[1] = biological target: wild-type Epidermal Growth Factor Receptor (EGFR) (Homo sapiens (Human), UniProt P00533); assay: WT-EGFR Kinase Assay (TR-FRET, 2 mM ATP)
Summary of the method: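 GST-tagged human EGFR (R669–A1210, Sf9-expressed) preincubated 15 min at 22° C with compound in pH 7.0 Hepes/MgCl2 buffer, then reacted at 2 mM ATP with a biotinylated peptide substrate. Phosphorylation detected by TR-FRET (streptavidin-XL665, Tb-cryptate anti-phosphotyrosine) as the 665/620 nm emission ratio.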

CSNK1D = CSNK1D (Homo sapiens (Human), UniProt P48730); assay: CSNK1D Assay (ADP-Glo, 1 μM ATP); settings: median, read-out: CSNK1D IC50 [mol/l] (median)
Summary of the method: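 Enzyme preincubated with compound 15 min at 22° C in 50 mM HEPES pH 7.5 buffer with 10 mM MgCl2, 1 mM DTT; kinase reaction run at 1 μM ATP with biotinylated peptide substrate. ADP formed was detected by ADP-Glo luminescence as the measure of activity.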

[2] = EGFR Wildtyp 2 mM ATP IC50 [mol/l] (median), median or individual measurements
[3] = read-out: EGFR Wildtyp 2 mM ATP IC50 [mol/l] (median), median or individual measurements

CSNK1A1, sequence (P48729 whole entry): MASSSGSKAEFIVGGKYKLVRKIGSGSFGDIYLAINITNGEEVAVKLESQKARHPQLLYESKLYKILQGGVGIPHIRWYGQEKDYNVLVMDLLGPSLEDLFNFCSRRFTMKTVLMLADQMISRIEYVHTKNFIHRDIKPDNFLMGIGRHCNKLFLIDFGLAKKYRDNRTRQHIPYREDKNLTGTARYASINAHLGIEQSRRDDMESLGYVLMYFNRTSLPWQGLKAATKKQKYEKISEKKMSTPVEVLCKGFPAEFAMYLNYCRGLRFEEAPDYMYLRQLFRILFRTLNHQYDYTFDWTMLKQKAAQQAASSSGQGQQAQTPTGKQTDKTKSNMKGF
wild-type Epidermal Growth Factor Receptor (EGFR), sequence (P00533 669-1210): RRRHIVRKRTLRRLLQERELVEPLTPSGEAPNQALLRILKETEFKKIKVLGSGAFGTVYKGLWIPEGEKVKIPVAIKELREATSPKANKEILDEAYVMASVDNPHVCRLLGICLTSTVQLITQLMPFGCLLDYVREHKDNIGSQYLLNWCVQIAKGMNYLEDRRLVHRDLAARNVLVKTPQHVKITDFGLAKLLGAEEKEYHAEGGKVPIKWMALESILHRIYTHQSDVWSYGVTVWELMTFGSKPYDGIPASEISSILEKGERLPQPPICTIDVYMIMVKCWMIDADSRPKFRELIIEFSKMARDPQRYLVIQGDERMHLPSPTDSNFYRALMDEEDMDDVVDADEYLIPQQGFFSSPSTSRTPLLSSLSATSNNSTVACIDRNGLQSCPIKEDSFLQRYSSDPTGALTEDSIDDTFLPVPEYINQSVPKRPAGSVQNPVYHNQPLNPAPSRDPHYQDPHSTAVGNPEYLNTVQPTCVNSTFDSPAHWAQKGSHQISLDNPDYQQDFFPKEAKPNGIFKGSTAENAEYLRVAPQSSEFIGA
CSNK1D, sequence (P48730 whole entry): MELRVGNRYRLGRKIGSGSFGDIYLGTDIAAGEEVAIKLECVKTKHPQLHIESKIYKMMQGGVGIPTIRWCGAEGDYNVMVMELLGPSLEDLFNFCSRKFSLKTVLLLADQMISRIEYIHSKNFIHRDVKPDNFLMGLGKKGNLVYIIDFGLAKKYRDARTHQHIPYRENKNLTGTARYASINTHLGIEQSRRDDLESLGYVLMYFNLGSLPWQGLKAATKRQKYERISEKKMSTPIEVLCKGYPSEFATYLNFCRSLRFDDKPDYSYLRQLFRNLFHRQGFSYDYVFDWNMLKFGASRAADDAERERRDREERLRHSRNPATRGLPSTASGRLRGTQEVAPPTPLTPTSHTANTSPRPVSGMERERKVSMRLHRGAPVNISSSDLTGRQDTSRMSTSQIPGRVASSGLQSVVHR

SMILES | IC50 (CSNK1A1) [nM] | IC50 [1, 2] [nM] | IC50 (CSNK1D) [nM] | IC50 [1, 3] [nM]
CC(C(=O)Nc1cc(-c2[nH]c3c(c2-c2ccc(F)cc2)C(=O)NC(C)(C)C3)ccn1)c1ccc(F)cc1 (single isomer, unassigned) [Example 95, 2-(4-fluorophenyl)-N-{4-[3-(4-fluorophenyl)-6,6-dimethyl-4-oxo-4,5,6,7-tetrahydro-1H-pyrrolo[3,2-c]pyridin-2-yl]pyridin-2-yl}propanamide] | 14 | > 20000 | 4.6 | –
CC(C(=O)Nc1cc(-c2[nH]c3c(c2-c2ccc(F)cc2)C(=O)NC(C)(C)C3)ccn1)c1ccc(F)cc1 (single isomer, unassigned) [Example 96, 2-(4-fluorophenyl)-N-{4-[3-(4-fluorophenyl)-6,6-dimethyl-4-oxo-4,5,6,7-tetrahydro-1H-pyrrolo[3,2-c]pyridin-2-yl]pyridin-2-yl}propanamide] | 1.3 | – | 2 | > 20000
CC(C(=O)Nc1cc(-c2[nH]c3c(c2-c2cccnc2)C(=O)NC(C)(C)C3)ccn1)c1ccc(F)cc1 (single isomer, unassigned) [Example 98, N-{4-[6,6-dimethyl-4-oxo-3-(pyridin-3-yl)-4,5,6,7-tetrahydro-1H-pyrrolo[3,2-c]pyridin-2-yl]pyridin-2-yl}-2-(4-fluorophenyl)propanamide] | 71 | > 20000 | 19 | –
CC(C(=O)Nc1cc(-c2[nH]c3c(c2-c2cccnc2)C(=O)NC(C)(C)C3)ccn1)c1ccc(F)cc1 (single isomer, unassigned) [Example 99, N-{4-[6,6-dimethyl-4-oxo-3-(pyridin-3-yl)-4,5,6,7-tetrahydro-1H-pyrrolo[3,2-c]pyridin-2-yl]pyridin-2-yl}-2-(4-fluorophenyl)propanamide] | 4.3 | – | 5.5 | > 20000
CC(C(=O)Nc1cc(-c2[nH]c3ccn(C)c(=O)c3c2-c2ccccc2)ccn1)c1ccc(F)cc1 (single isomer, unassigned) [Example 104, 2-(4-fluorophenyl)-N-[4-(5-methyl-4-oxo-3-phenyl-4,5-dihydro-1H-pyrrolo[3,2-c]pyridin-2-yl)pyridin-2-yl]propanamide] | 7 | > 20000 | 5.1 | –
CC(C(=O)Nc1cc(-c2[nH]c3ccn(C)c(=O)c3c2-c2ccccc2)ccn1)c1ccc(F)cc1 (single isomer, unassigned) [Example 105, 2-(4-fluorophenyl)-N-[4-(5-methyl-4-oxo-3-phenyl-4,5-dihydro-1H-pyrrolo[3,2-c]pyridin-2-yl)pyridin-2-yl]propanamide] | 0.71 | 8220 | 1.5 | –
Cn1cc(CC(F)F)c2[nH]c(-c3ccnc(NC(=O)C(CC(F)F)c4ccc(F)cc4)c3)c(-c3ccccc3)c2c1=O (single isomer, unassigned) [Example 148, N-{4-[7-(2,2-difluoroethyl)-5-methyl-4-oxo-3-phenyl-4,5-dihydro-1H-pyrrolo[3,2-c]pyridin-2-yl]pyridin-2-yl}-4,4-difluoro-2-(4-fluorophenyl)butanamide] | 12 | 8750 | 6.8 | –
Cn1cc(CC(F)F)c2[nH]c(-c3ccnc(NC(=O)C(CC(F)F)c4ccc(F)cc4)c3)c(-c3ccccc3)c2c1=O (single isomer, unassigned) [Example 149, N-{4-[7-(2,2-difluoroethyl)-5-methyl-4-oxo-3-phenyl-4,5-dihydro-1H-pyrrolo[3,2-c]pyridin-2-yl]pyridin-2-yl}-4,4-difluoro-2-(4-fluorophenyl)butanamide] | 3.7 | > 20000 | 3.8 | –
CC(C(=O)Nc1cc(-c2[nH]c3c(c2-c2ccccc2)C(=O)N(C)CC3)ccn1)c1ccncc1 (single isomer, unassigned) [Example 155, N-[4-(5-methyl-4-oxo-3-phenyl-4,5,6,7-tetrahydro-1H-pyrrolo[3,2-c]pyridin-2-yl)pyridin-2-yl]-2-(pyridin-4-yl)propanamide] | 1.3 | > 20000 | 2 | –
O=C(Nc1cc(-c2[nH]c3ccn(C4CC4)c(=O)c3c2-c2ccccc2)ccn1)C(CC(F)F)c1ccc(F)cc1 (single isomer, unassigned) [Example 157, (2R or S)—N-[4-(5-cyclopropyl-4-oxo-3-phenyl-4,5-dihydro-1H-pyrrolo[3,2-c]pyridin-2-yl)pyridin-2-yl]-4,4-difluoro-2-(4-fluorophenyl)butanamide] | 2 | > 20000 | 2.3 | –
O=C(Nc1cc(-c2[nH]c3ccn(C4CC4)c(=O)c3c2-c2ccccc2)ccn1)C(CC(F)F)c1ccc(F)cc1 (single isomer, unassigned) [Example 158, (2R or S)—N-[4-(5-cyclopropyl-4-oxo-3-phenyl-4,5-dihydro-1H-pyrrolo[3,2-c]pyridin-2-yl)pyridin-2-yl]-4,4-difluoro-2-(4-fluorophenyl)butanamide] | 3.2 | – | 5.1 | > 20000
CC(C(=O)Nc1cc(-c2[nH]c3ccn(C)c(=O)c3c2-c2ccc(F)cc2)ccn1)c1ccc(F)cc1 (single isomer, unassigned; (+)) [Example 102, (+)-2-(4-fluorophenyl)-N-{4-[3-(4-fluorophenyl)-5-methyl-4-oxo-4,5-dihydro-1H-pyrrolo[3,2-c]pyridin-2-yl]pyridin-2-yl}propanamide] | 1 | 875 | 2 | –
Cn1ccc2[nH]c(-c3ccnc(NC(=O)C(CC(F)F)c4ccc(F)cc4)c3)c(-c3ccc(F)cc3)c2c1=O (single isomer, unassigned; (+)) [Example 109, (+)-4,4-difluoro-2-(4-fluorophenyl)-N-{4-[3-(4-fluorophenyl)-5-methyl-4-oxo-4,5-dihydro-1H-pyrrolo[3,2-c]pyridin-2-yl]pyridin-2-yl}butanamide] | 2.1 | 3850 | 3.7 | –
O=C(Nc1cc(-c2[nH]c3ccn(C4CC4)c(=O)c3c2-c2ccc(F)cc2)ccn1)C(CC(F)F)c1ccc(F)cc1 (single isomer, unassigned; (+)) [Example 136, (+)-N-{4-[5-cyclopropyl-3-(4-fluorophenyl)-4-oxo-4,5-dihydro-1H-pyrrolo[3,2-c]pyridin-2-yl]pyridin-2-yl}-4,4-difluoro-2-(4-fluorophenyl)butanamide] | 3.1 | – | 2.1 | > 20000
CN1CC(C)(C)c2[nH]c(-c3ccnc(NC(=O)C(CC(F)F)c4ccc(F)cc4)c3)c(-c3ccccc3)c2C1=O (single isomer, unassigned; (+)) [Example 152, (+)-4,4-difluoro-2-(4-fluorophenyl)-N-[4-(5,7,7-trimethyl-4-oxo-3-phenyl-4,5,6,7-tetrahydro-1H-pyrrolo[3,2-c]pyridin-2-yl)pyridin-2-yl]butanamide] | 4.3 | – | 4.5 | > 20000
CC(C(=O)Nc1cc(-c2[nH]c3ccn(C)c(=O)c3c2-c2ccc(F)cc2)ccn1)c1ccc(F)cc1 (single isomer, unassigned; (-)) [Example 101, (−)-2-(4-fluorophenyl)-N-{4-[3-(4-fluorophenyl)-5-methyl-4-oxo-4,5-dihydro-1H-pyrrolo[3,2-c]pyridin-2-yl]pyridin-2-yl}propanamide] | 12 | 32.4 | 5.6 | –
Cn1ccc2[nH]c(-c3ccnc(NC(=O)C(CC(F)F)c4ccc(F)cc4)c3)c(-c3ccc(F)cc3)c2c1=O (single isomer, unassigned; (-)) [Example 108, (−)-4,4-difluoro-2-(4-fluorophenyl)-N-{4-[3-(4-fluorophenyl)-5-methyl-4-oxo-4,5-dihydro-1H-pyrrolo[3,2-c]pyridin-2-yl]pyridin-2-yl}butanamide] | 15 | 663 | 9.4 | –
O=C(Nc1cc(-c2[nH]c3ccn(C4CC4)c(=O)c3c2-c2ccc(F)cc2)ccn1)C(CC(F)F)c1ccc(F)cc1 (single isomer, unassigned; (-)) [Example 135, (−)-N-{4-[5-cyclopropyl-3-(4-fluorophenyl)-4-oxo-4,5-dihydro-1H-pyrrolo[3,2-c]pyridin-2-yl]pyridin-2-yl}-4,4-difluoro-2-(4-fluorophenyl)butanamide] | 7.8 | > 20000 | 5.4 | –
CN1CC(C)(C)c2[nH]c(-c3ccnc(NC(=O)C(CC(F)F)c4ccc(F)cc4)c3)c(-c3ccccc3)c2C1=O (single isomer, unassigned; (-)) [Example 151, (−)-4,4-difluoro-2-(4-fluorophenyl)-N-[4-(5,7,7-trimethyl-4-oxo-3-phenyl-4,5,6,7-tetrahydro-1H-pyrrolo[3,2-c]pyridin-2-yl)pyridin-2-yl]butanamide] | 17 | > 20000 | 19 | –
CN1CCc2[nH]c(-c3ccnc(NC(=O)Cc4ccc(F)cc4)c3)c(-c3ccccc3)c2C1=O [Example 1, 2-(4-fluorophenyl)-N-[4-(5-methyl-4-oxo-3-phenyl-4,5,6,7-tetrahydro-1H-pyrrolo[3,2-c]pyridin-2-yl)pyridin-2-yl]acetamide] | 1.3 | – | 3.7 | > 20000
